How the values were obtained:
Format in all cases: biochemical
KRAS G12V = KRAS G12V (Homo sapiens (Human), UniProt P01116+P62937, G12V); test: Ras-Raf (BRAF RBD) disruption / FRET / MOA assay, KRAS G12V; conditions: read-out: IC50* KRAS G12V FRET data
Outline: (§1)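 Ternary complex formation (Ras–compound–cyclophilin A) displacing BRAF RBD, monitored by TR-FRET. Three hours at 25° C with compound (top 30 μM final), then 1.5 h with the labelled antibodies. Lower ratio than DMSO indicates disruption; IC50 reported.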

KRAS Q61H = KRAS Q61H (Homo sapiens (Human), UniProt P01116+P62937, Q61H); test: Ras-Raf (BRAF RBD) disruption / FRET / MOA assay, KRAS Q61H; conditions: Ras-Raf disruption/FRET/MOA assay; class symbols; read-out: KRAS Q61H FRET data IC50
KRAS Q61H, sequence (P01116-2 other isoform, or with tags, fused parts or gaps Q61H): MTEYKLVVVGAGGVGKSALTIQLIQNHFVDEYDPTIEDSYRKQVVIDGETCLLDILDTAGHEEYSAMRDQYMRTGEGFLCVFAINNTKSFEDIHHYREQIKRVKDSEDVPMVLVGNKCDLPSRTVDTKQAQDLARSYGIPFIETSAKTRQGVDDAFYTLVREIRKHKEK
KRAS Q61H, sequence (P62937 whole entry): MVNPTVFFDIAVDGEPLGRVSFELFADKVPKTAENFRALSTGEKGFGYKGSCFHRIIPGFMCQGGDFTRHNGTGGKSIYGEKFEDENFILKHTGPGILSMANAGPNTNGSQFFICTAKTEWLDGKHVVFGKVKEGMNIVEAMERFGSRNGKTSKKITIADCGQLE
Outline: (§2)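 Compounds were tested as a 10-point 3-fold dilution series from 30 μM final for their ability to drive ternary complex formation between nucleotide-loaded Ras and cyclophilin A, displacing the BRAF RBD. After 3 h at 25° C., anti-His Eu-W1024 (10 nM) and anti-GST allophycocyanin (50 nM) were added for 1.5 h. A TR-FRET ratio decrease versus DMSO gave IC50.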

NRAS G12C = NRAS G12C (Homo sapiens (Human), UniProt P01111+P62937, G12C); test: Ras-Raf (BRAF RBD) disruption / FRET / MOA assay, NRAS G12C; conditions: read-out: IC50* NRAS G12C FRET data
NRAS G12C, sequence (P01111 whole entry G12C): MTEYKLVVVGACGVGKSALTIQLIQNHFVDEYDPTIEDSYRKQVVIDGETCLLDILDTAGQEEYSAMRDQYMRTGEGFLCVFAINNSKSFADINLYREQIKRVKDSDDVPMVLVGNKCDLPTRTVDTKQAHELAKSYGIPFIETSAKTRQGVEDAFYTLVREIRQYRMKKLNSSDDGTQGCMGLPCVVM
NRAS G12C, sequence (P62937 whole entry): as the sequence (P62937 whole entry) above
Outline: as §1

K-Ras G13C = K-Ras G13C (Homo sapiens (Human), UniProt P01116+P62937, G13C); test: Ras-Raf (BRAF RBD) disruption / FRET / MOA assay, KRAS G13C; conditions: KRAS G13C; Ras-Raf disruption/FRET/MOA assay; read-out: IC50* KRAS G13C FRET data
K-Ras G13C, sequence (P01116-2 other isoform, or with tags, fused parts or gaps G13C): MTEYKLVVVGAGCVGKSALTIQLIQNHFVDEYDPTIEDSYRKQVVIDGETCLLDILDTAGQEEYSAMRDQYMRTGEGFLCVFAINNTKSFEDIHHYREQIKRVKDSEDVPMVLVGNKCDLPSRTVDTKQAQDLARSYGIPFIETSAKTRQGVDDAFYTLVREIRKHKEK
K-Ras G13C, sequence (P62937 whole entry): as the sequence (P62937 whole entry) above
Outline: as §1

NRAS Q61K = NRAS Q61K (Homo sapiens (Human), UniProt P01111+P62937, Q61K); test: Ras-Raf (BRAF RBD) disruption / FRET / MOA assay, NRAS Q61K; conditions: NRAS Q61K; Ras-Raf disruption/FRET/MOA assay; read-out: IC50* NRAS Q61K FRET data
NRAS Q61K, sequence (P01111 whole entry Q61K): as the sequence (P01111 whole entry G12C) above, with C12G, Q61K counted along it
NRAS Q61K, sequence (P62937 whole entry): as the sequence (P62937 whole entry) above
Outline: as §2

K-Ras G12C = K-Ras G12C (Homo sapiens (Human), UniProt P01116+P62937, G12C); test: Ras-Raf (BRAF RBD) disruption / FRET / MOA assay, KRAS G12C; conditions: KRAS G12C; Ras-Raf disruption/FRET/MOA assay; read-out: IC50* KRAS G12C FRET data
K-Ras G12C, sequence (P01116-2 other isoform, or with tags, fused parts or gaps G12C): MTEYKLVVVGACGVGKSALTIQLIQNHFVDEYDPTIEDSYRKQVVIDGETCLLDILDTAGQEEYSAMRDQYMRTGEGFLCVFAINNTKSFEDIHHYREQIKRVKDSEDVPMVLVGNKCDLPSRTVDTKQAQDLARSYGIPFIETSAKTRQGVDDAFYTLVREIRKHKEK
K-Ras G12C, sequence (P62937 whole entry): as the sequence (P62937 whole entry) above
Outline: as §1

NRAS Q61R = NRAS Q61R (Homo sapiens (Human), UniProt P01111+P62937, Q61R); test: Ras-Raf (BRAF RBD) disruption / FRET / MOA assay, NRAS Q61R; conditions: NRAS Q61R; Ras-Raf disruption/FRET/MOA assay; read-out: IC50* NRAS Q61R FRET data
NRAS Q61R, sequence (P01111 whole entry Q61R): as the sequence (P01111 whole entry G12C) above, with C12G, Q61R counted along it
NRAS Q61R, sequence (P62937 whole entry): as the sequence (P62937 whole entry) above
Outline: as §2

NRAS WT = NRAS WT (Homo sapiens (Human), UniProt P01111+P62937); test: Ras-Raf (BRAF RBD) disruption / FRET / MOA assay, NRAS WT; conditions: read-out: IC50* NRAS WT FRET data
NRAS WT, sequence (P01111 whole entry): as the sequence (P01111 whole entry G12C) above, with C12G counted along it
NRAS WT, sequence (P62937 whole entry): as the sequence (P62937 whole entry) above
Outline: as §2

KRAS G13D = KRAS G13D (Homo sapiens (Human), UniProt P01116+P62937, G13D); test: Ras-Raf (BRAF RBD) disruption / FRET / MOA assay, KRAS G13D; conditions: read-out: IC50* KRAS G13D FRET data
KRAS G13D, sequence (P01116-2 other isoform, or with tags, fused parts or gaps G13D): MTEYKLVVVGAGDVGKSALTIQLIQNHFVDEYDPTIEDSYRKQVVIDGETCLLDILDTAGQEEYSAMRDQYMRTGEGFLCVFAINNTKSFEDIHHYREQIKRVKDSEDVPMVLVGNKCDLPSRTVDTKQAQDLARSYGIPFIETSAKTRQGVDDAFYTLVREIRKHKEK
KRAS G13D, sequence (P62937 whole entry): as the sequence (P62937 whole entry) above
Outline: as §1

Measured: IC50

KRAS G12V, sequence (P01116-2 other isoform, or with tags, fused parts or gaps G12V): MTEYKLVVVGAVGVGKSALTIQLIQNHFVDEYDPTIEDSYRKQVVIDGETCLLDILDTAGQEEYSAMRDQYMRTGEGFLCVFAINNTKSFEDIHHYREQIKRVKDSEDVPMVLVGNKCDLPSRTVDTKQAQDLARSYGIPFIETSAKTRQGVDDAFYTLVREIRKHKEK
KRAS G12V, sequence (P62937 whole entry): as the sequence (P62937 whole entry) above

C=CC(=O)Nc1ccc(C(=O)N(C)[C@H](C(=O)N[C@H]2Cc3cc(O)cc(c3)-c3ccc4c(c3)c(c(-c3cccnc3[C@H](C)OC)n4CC)CC(C)(C)COC(=O)[C@@H]3CCCN(N3)C2=O)C(C)C)nc1 (atropisomer, axis not shown) [Example A252]
< 10 nM: K-Ras G13C
1000 to 10000 nM: NRAS Q61K | NRAS Q61R
10 to 100 nM: NRAS G12C | K-Ras G12C
100 to 1000 nM: all other assays above

C=CC(=O)N1CCN(C(=O)N(C)[C@H](C(=O)N[C@H]2Cc3cc(O)cc(c3)-c3ccc4c(c3)c(c(-c3cccnc3[C@H](C)OC)n4CC)CC(C)(C)COC(=O)[C@@H]3CCCN(N3)C2=O)C(C)C)CC1 (atropisomer, axis not shown) [Example A262]
100 to 1000 nM: NRAS Q61R
< 10 nM: K-Ras G13C
10 to 100 nM: all other assays above

C=CS(=O)(=O)N1CC2(CCN([C@H](C(=O)N[C@H]3Cc4cc(O)cc(c4)-c4ccc5c(c4)c(c(-c4cccnc4[C@H](C)OC)n5CC)CC(C)(C)COC(=O)[C@@H]4CCCN(N4)C3=O)C(C)C)C2=O)C1 (atropisomer, axis not shown) [Example A297]
100 to 1000 nM: KRAS G12V | NRAS Q61R | KRAS G13D
10 to 100 nM: NRAS Q61K | K-Ras G12C | NRAS WT
< 10 nM: all other assays above

C=CC(=O)N1CC[C@H](C(=O)N(C)[C@H](C(=O)N[C@H]2Cc3cccc(c3)-c3ccc4c(c3)c(c(-c3cccnc3[C@H](C)OC)n4CC(F)(F)F)CC(C)(C)COC(=O)[C@@H]3CCCN(N3)C2=O)C(C)C)C1 (atropisomer, axis not shown) [Example A332]
100 to 1000 nM: KRAS Q61H | K-Ras G13C
10 to 100 nM: NRAS G12C | K-Ras G12C
1000 to 10000 nM: all other assays above

C=CC(=O)N1CC[C@H](C(=O)N(C)[C@H](C(=O)N[C@H]2Cc3cc(F)cc(c3)-c3ccc4c(c3)c(c(-c3cccnc3[C@H](C)OC)n4CC)CC(C)(C)COC(=O)[C@@H]3CCCN(N3)C2=O)C(C)C)C1 (atropisomer, axis not shown) [Example A342]
10 to 100 nM: K-Ras G12C
100 to 1000 nM: KRAS Q61H | NRAS G12C | K-Ras G13C
1000 to 10000 nM: all other assays above

CCn1c(-c2cccnc2[C@H](C)OC)c2c3cc(ccc31)-c1cccc(c1)C[C@H](NC(=O)[C@@H](COC1CN(C(=O)C#CC(C)(C)N3CCC3)C1)C(C)C)C(=O)N1CCC[C@H](N1)C(=O)OCC(C)(C)C2 (atropisomer, axis not shown) [Example A346]
< 10 nM: K-Ras G12C
10 to 100 nM: NRAS G12C
1000 to 10000 nM: KRAS G12V | KRAS Q61H | K-Ras G13C
> 10000 nM: all other assays above

CO[C@@H](C)c1ncccc1-c1c2c3cc(ccc3n1CC(F)(F)F)-c1cc(F)cc(c1)C[C@H](NC(=O)[C@@H](COC1CN(C(=O)C#CC(C)(C)N(C)C)C1)C(C)C)C(=O)N1CCC[C@H](N1)C(=O)OCC(C)(C)C2 (atropisomer, axis not shown) [Example A348]
> 10000 nM: NRAS Q61K | NRAS Q61R | KRAS G13D
< 10 nM: NRAS G12C | K-Ras G12C
1000 to 10000 nM: all other assays above

CCn1c(-c2cccnc2[C@H](C)OC)c2c3cc(ccc31)-c1cccc(c1)C[C@H](NC(=O)[C@H](C(C)C)N1CO[C@]3(CCN(C(=O)C#CC(C)(C)N4CCC4)C3)C1=O)C(=O)N1CCC[C@H](N1)C(=O)OCC(C)(C)C2 (atropisomer, axis not shown) [Example A351]
< 10 nM: NRAS G12C | K-Ras G12C
100 to 1000 nM: KRAS Q61H | K-Ras G13C | NRAS WT
1000 to 10000 nM: all other assays above

C=CC(=O)N1CC[C@@]2(CCN(C(=O)N(C)[C@H](C(=O)N[C@H]3Cc4nc(cs4)-c4ccc5c(c4)c(c(-c4cccnc4[C@H](C)OC)n5CC)CC(C)(C)COC(=O)[C@@H]4CCCN(N4)C3=O)C(C)C)C2)C1 (atropisomer, axis not shown) [Example A367]
100 to 1000 nM: KRAS G12V | K-Ras G13C | KRAS G13D
10 to 100 nM: all other assays above

C=CC(=O)N(C)CC1CN(C(=O)N(C)[C@H](C(=O)N[C@H]2Cc3nc(cs3)-c3ccc4c(c3)c(c(-c3cccnc3[C@H](C)OC)n4CC)CC(C)(C)COC(=O)[C@@H]3CCCN(N3)C2=O)C(C)C)C1 (atropisomer, axis not shown) [Example A368]
100 to 1000 nM: K-Ras G13C | KRAS G13D
10 to 100 nM: all other assays above

C=CC(=O)N1CC[C@]2(C1)OCN([C@H](C(=O)N[C@H]1Cc3cccc(c3)-c3ccc4c(c3)c(c(-c3cccnc3[C@H](C)OC)n4CC)CC(C)(C)COC(=O)[C@@H]3CCCN(N3)C1=O)C(C)C)C2=O (atropisomer, axis not shown) [Example A371]
10 to 100 nM: NRAS G12C | K-Ras G12C
100 to 1000 nM: K-Ras G13C
1000 to 10000 nM: KRAS Q61H | NRAS WT
> 10000 nM: all other assays above

CO[C@@H](C)c1ncccc1-c1c2c3cc(ccc3n1CC(F)(F)F)N1CCO[C@@H](C[C@H](NC(=O)[C@@H](COC3CN(C(=O)C#CC(C)(C)N(C)C)C3)C(C)C)C(=O)N3CCC[C@H](N3)C(=O)OCC(C)(C)C2)C1 (atropisomer, axis not shown) [Example A375, (2R)-2-(((1-(4-(dimethylamino)-4-methylpent-2-ynoyl)azetidin-3-yl)oxy)methyl)-N-((2^2S,6^3S,4S)-1^2-(2-((S)-1-methoxyethyl)pyridin-3-yl)-10,10-dimethyl-5,7-dioxo-1^1-(2,2,2-trifluoroethyl)-6^1,6^2,6^3,6^4,6^5,6^6-hexahydro-1^1H-8-oxa-2(4,2)-morpholina-1(5,3)-indola-6(1,3)-pyridazinacycloundecaphane-4-yl)-3-methylbutanamide]
< 10 nM: NRAS G12C | K-Ras G12C
1000 to 10000 nM: KRAS G12V | K-Ras G13C | NRAS WT
> 10000 nM: all other assays above

C=CC(=O)N(C)[C@@H]1CCCN(C(=O)N(C)[C@H](C(=O)N[C@H]2Cc3nc(cs3)-c3ccc4c(c3)c(c(-c3cccnc3[C@H](C)OC)n4CC)CC(C)(C)COC(=O)[C@@H]3CCCN(N3)C2=O)C(C)C)C1 (atropisomer, axis not shown) [Example A382]
100 to 1000 nM: KRAS G12V | K-Ras G13C | KRAS G13D
10 to 100 nM: all other assays above
